Laboratory results published in patent US20100087477A1, “SELECTIVE GLYCOSIDASE INHIBITORS” (priority 2006, published 2010).
Like-named read-outs stand apart in the source and are kept apart here.

Columns and labels:
[1] = target: mixture of the human placental hexosaminidases HexA/HexB; assay: Steady state kinetics of hexosaminidases A and B with 4MU-GlcNAc; assay type: biochemical
[2] = target: bacterial O-GlcNAcase (bOGA) (NagJ from Clostridium perfringens) (Clostridium perfringens, UniProt Q8XL08); assay: biochemical; set-up: Ratio a/b: reference not given here
bacterial O-GlcNAcase (bOGA) (NagJ from Clostridium perfringens), sequence (Q8XL08 31-1001 limits assumed): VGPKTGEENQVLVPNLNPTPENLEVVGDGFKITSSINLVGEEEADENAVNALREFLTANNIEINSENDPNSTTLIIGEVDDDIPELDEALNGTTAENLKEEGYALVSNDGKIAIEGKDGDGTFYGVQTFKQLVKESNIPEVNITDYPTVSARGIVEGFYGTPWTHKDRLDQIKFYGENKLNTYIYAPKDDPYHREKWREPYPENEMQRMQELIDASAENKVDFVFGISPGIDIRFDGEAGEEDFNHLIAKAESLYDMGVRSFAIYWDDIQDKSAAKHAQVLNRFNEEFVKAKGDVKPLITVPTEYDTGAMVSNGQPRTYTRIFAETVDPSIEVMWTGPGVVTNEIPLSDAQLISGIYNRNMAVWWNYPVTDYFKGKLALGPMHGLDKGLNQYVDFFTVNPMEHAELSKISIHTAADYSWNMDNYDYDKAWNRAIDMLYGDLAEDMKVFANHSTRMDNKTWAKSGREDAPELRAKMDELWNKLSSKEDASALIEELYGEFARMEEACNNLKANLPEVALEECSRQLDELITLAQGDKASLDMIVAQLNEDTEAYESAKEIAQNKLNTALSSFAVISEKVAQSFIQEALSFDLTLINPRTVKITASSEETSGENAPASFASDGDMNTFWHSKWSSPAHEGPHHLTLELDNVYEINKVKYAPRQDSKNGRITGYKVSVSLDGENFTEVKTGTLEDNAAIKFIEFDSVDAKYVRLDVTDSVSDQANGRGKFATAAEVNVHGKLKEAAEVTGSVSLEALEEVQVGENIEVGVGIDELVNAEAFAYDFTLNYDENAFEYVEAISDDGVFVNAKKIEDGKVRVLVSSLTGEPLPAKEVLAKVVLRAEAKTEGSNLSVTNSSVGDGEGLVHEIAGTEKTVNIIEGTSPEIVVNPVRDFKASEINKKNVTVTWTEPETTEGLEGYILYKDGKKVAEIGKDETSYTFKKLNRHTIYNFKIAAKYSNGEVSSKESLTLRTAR

OGA = target: T1, OGA (Homo sapiens, UniProt O60502); details: background, literature; cited from earlier work
T1 sequence (O60502 1-916): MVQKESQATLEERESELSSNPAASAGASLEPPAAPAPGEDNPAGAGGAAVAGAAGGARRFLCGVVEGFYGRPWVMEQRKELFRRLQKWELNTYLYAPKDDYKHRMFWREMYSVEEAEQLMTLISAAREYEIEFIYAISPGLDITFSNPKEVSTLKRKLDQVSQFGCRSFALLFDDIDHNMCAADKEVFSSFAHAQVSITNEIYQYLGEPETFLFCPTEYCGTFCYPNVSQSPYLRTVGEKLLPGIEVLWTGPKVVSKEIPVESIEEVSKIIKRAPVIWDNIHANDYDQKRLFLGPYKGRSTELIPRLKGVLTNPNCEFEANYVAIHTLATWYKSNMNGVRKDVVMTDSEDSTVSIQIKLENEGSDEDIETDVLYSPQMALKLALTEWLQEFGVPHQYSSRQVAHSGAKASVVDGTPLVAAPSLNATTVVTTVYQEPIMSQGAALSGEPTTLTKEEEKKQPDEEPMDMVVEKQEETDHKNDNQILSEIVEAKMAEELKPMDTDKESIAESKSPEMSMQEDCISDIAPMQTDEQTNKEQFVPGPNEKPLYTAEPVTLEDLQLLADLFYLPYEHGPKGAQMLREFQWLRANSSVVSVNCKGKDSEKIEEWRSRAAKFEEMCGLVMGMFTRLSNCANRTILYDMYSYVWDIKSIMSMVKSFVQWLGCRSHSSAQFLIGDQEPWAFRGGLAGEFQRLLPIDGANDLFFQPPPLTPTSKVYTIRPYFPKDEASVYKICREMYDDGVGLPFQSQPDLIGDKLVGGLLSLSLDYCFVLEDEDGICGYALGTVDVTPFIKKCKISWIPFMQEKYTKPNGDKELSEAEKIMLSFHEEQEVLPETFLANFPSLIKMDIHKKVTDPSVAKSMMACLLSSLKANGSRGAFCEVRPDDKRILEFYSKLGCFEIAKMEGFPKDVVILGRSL

human OGA (hOGA) = target: T2, human OGA (hOGA) (Homo sapiens, UniProt O60502); assay: Inhibition of human OGA (hOGA), methodology similar to bOGA; assay type: biochemical
T2 sequence (O60502 1-916): T1 sequence (O60502 1-916)

bOGA = bOGA (Clostridium perfringens, UniProt Q8XL08); assay type: biochemical
bOGA, sequence (Q8XL08 31-1001 limits assumed): as the sequence (Q8XL08 31-1001 limits assumed) above

HEK 293 cells = assay: Immunoblot: O-GlcNAc levels in treated HEK 293 cells; assay type: cell-based, human; details: FIG. 4B
[3] = test system: human lysosomal hexosaminidases HexA and HexB; details: background, literature; cited from earlier work
[4] = read-out: Ki values (in M) a) hexosaminidases

## CC(=O)NC1c2nc(CCc3ccccc3)cn2C(CO)[C@@H](O)[C@@H]1O (stereo partly drawn) [Compound III]
[1]; [4]
  Ki: 2 nM
[2]
  Ki: 0.0078 nM
  Ratio a/b: 256

## CC(=O)NC1c2nc(C(=O)Nc3ccccc3)cn2C(CO)[C@@H](O)C1O (stereo partly drawn) [A]
OGA
  inhibition of OGA (in words): only acts at the micromolar level

## CC(C)C(=O)NC1c2nc(CCc3ccccc3)cn2C(CO)[C@@H](O)C1O (stereo partly drawn) [Compound II]
Human OGA (hOGA)
  inhibition of hOGA (in words): active against human OGA
Human OGA (hOGA); hOGA, FIG. 5
  IC50: 8 nM
Human OGA (hOGA); listed as GlcNacstain
  inhibition of hOGA (in words): more potent inhibitor than PUGNac
[1]; HexA/HexB mixture, read-out: Ki values (in M) a) hexosaminidases
  Ki: 500 nM
[1]; placental hexosaminidases, 0-400 nM inhibitor, FIG. 3, read-out: Ki
  Ki: 520 ± 70 nM
bOGA
  activity in inhibiting bOGA from removing O-GlcNAc from proteins: more active than PUGNAc
HEK 293 cells
  raising O-GlcNAc levels: more efficient at raising O-GlcNAc levels than PUGNAc
[2]
  Ki: 0.0046 ± 0.0002 nM
  Ratio a/b: 108000

## CC(=O)N[C@H]1/C(=N/OC(=O)Nc2ccccc2)O[C@H](CO)[C@@H](O)[C@@H]1O [PUGNAc, O-(2-acetamido-2-deoxy-D-glucopyrano-sylidene)amino-N-phenylcarbamate]
OGA
  inhibition of OGA (in words): nanomolar inhibitor
[3]
  inhibition of HexA and HexB (in words): potent inhibitor

## COC(=O)Cc1cn2c(n1)C(NC(C)=O)[C@@H](O)[C@H](O)C2CO (stereo partly drawn) [V, reference compound]
[1]; [4]
  Ki: 7.5 nM
[2]
  Ki: 0.003 nM
  Ratio a/b: 2500

## CCC(=O)NC1c2nc(CCc3ccccc3)cn2C(CO)[C@@H](O)[C@@H]1O (stereo partly drawn) [Compound IV]
[1]; [4]
  Ki: 4.8 nM
[2]
  Ki: 0.011 nM
  Ratio a/b: 440
